Assays:
Assay in all cases: KinomeScan kinase profiling
Type in all cases: binding
LCK = target: T1, LCK (Homo sapiens, UniProt P06239)
T1 construct: purchased Ambit Biosciences (San Diego, Calif.)

GAK = target: T2, GAK (Homo sapiens, UniProt O14976)
T2 construct: purchased Ambit Biosciences (San Diego, Calif.)
From the text: (§1) The selectivity of a given CK1δ, CK1ε or CK1δ-CK1ε inhibitor compound can be determined by testing the compound against a panel of known kinases. An example of such a kinase profiling technology is the “KinomeScan” from Ambit Biosciences in which compounds can be screened for their modulatory activities against more than 200 known kinases.

RIPK2 = target: T3, RIPK2 (Homo sapiens, UniProt O43353)
T3 construct: purchased Ambit Biosciences
From the text: as §1

PAK7/PAK5 = target: T4, PAK7/PAK5 (Homo sapiens, UniProt Q9P286)
T4 construct: purchased Ambit Biosciences (San Diego, Calif.)
From the text: as §1

CAMK1D = target: T5, CAMK1D (Homo sapiens, UniProt Q8IU85)
T5 construct: purchased Ambit Biosciences (San Diego, Calif.)
From the text: as §1

IGF1R = target: T6, IGF1R (Homo sapiens, UniProt P08069)
T6 construct: purchased Ambit Biosciences (San Diego, Calif.)
From the text: as §1

CAMK2G = target: T7, CAMK2G (Homo sapiens, UniProt Q13555)
T7 construct: purchased Ambit Biosciences (San Diego, Calif.)
From the text: as §1

EPHA6 = target: T8, EPHA6 (Homo sapiens, UniProt Q9UF33)
T8 construct: purchased Ambit Biosciences (San Diego, Calif.)
From the text: as §1

INSR = target: T9, INSR (Homo sapiens, UniProt P06213)
T9 construct: purchased Ambit Biosciences (San Diego, Calif.)
From the text: as §1

VEGFR2 = target: T10, VEGFR2 (Homo sapiens, UniProt P35968)
T10 construct: purchased Ambit Biosciences (San Diego, Calif.)
From the text: as §1

RAF1 = target: T11, RAF1 (Homo sapiens, UniProt P04049)
T11 construct: purchased Ambit Biosciences
From the text: as §1

ERBB2 = target: T12, ERBB2 (Homo sapiens, UniProt P04626)
T12 construct: purchased Ambit Biosciences (San Diego, Calif.)
From the text: as §1

STK11 = target: T13, STK11 (Homo sapiens, UniProt Q15831)
T13 construct: purchased Ambit Biosciences
From the text: as §1

SLK = target: T14, SLK (Homo sapiens, UniProt Q9H2G2)
T14 construct: purchased Ambit Biosciences
From the text: as §1

STK16 = target: T15, STK16 (Homo sapiens, UniProt O75716)
T15 construct: purchased Ambit Biosciences
From the text: as §1

FYN = target: T16, FYN (Homo sapiens, UniProt P06241)
T16 construct: purchased Ambit Biosciences (San Diego, Calif.)
From the text: as §1

HCK = target: T17, HCK (Homo sapiens, UniProt P08631)
T17 construct: purchased Ambit Biosciences (San Diego, Calif.)
From the text: as §1

MAP4K5 = target: T18, MAP4K5 (Homo sapiens, UniProt Q9Y4K4)
T18 construct: purchased Ambit Biosciences (San Diego, Calif.)
From the text: as §1

CAMKK2 = target: T19, CAMKK2 (Homo sapiens, UniProt Q96RR4)
T19 construct: purchased Ambit Biosciences (San Diego, Calif.)
From the text: as §1

CLK3 = target: T20, CLK3 (Homo sapiens, UniProt P49761)
T20 construct: purchased Ambit Biosciences (San Diego, Calif.)
From the text: as §1

LYN = target: T21, LYN (Homo sapiens, UniProt P07948)
T21 construct: purchased Ambit Biosciences (San Diego, Calif.)
From the text: as §1

PAK3 = target: T22, PAK3 (Homo sapiens, UniProt O75914)
T22 construct: purchased Ambit Biosciences (San Diego, Calif.)
From the text: as §1

FGFR1 = target: T23, FGFR1 (Homo sapiens, UniProt P11362)
T23 construct: purchased Ambit Biosciences (San Diego, Calif.)
From the text: as §1

ERBB4 = target: T24, ERBB4 (Homo sapiens, UniProt Q15303)
T24 construct: purchased Ambit Biosciences (San Diego, Calif.)
From the text: as §1

PIM2 = target: T25, PIM2 (Homo sapiens, UniProt Q9P1W9)
T25 construct: purchased Ambit Biosciences (San Diego, Calif.)
From the text: as §1

NEK6 = target: T26, NEK6 (Homo sapiens, UniProt Q9HC98)
T26 construct: purchased Ambit Biosciences (San Diego, Calif.)
From the text: as §1

JNK1 = target: T27, JNK1 (Homo sapiens, UniProt P45983)
T27 construct: purchased Ambit Biosciences (San Diego, Calif.)
From the text: as §1

FER = target: T28, FER (Homo sapiens, UniProt P16591)
T28 construct: purchased Ambit Biosciences (San Diego, Calif.)
From the text: as §1

TNIK = target: T29, TNIK (Homo sapiens, UniProt Q9UKE5)
T29 construct: purchased Ambit Biosciences
From the text: as §1

CSNK2A1 = target: T30, CSNK2A1 (Homo sapiens, UniProt P68400)
T30 construct: purchased Ambit Biosciences (San Diego, Calif.)
From the text: as §1

CLK1 = target: T31, CLK1 (Homo sapiens, UniProt P49759)
T31 construct: purchased Ambit Biosciences (San Diego, Calif.)
From the text: as §1

p38-gamma = target: T32, p38-gamma (Homo sapiens, UniProt P53778)
T32 construct: purchased Ambit Biosciences (San Diego, Calif.)
From the text: as §1

PTK2B = target: T33, PTK2B (Homo sapiens, UniProt Q14289)
T33 construct: purchased Ambit Biosciences
From the text: as §1

AURKC = target: T34, AURKC (Homo sapiens, UniProt Q9UQB9)
T34 construct: purchased Ambit Biosciences (San Diego, Calif.)
From the text: as §1

RPS6KA5 = target: T35, RPS6KA5 (Homo sapiens, UniProt O75582)
T35 construct: purchased Ambit Biosciences
From the text: as §1

TIE2 = target: T36, TIE2 (Homo sapiens, UniProt Q02763)
T36 construct: purchased Ambit Biosciences
From the text: as §1

PHKG2 = target: T37, PHKG2 (Homo sapiens, UniProt P15735)
T37 construct: purchased Ambit Biosciences (San Diego, Calif.)
From the text: as §1

PAK4 = target: T38, PAK4 (Homo sapiens, UniProt O96013)
T38 construct: purchased Ambit Biosciences (San Diego, Calif.)

PCTK1 = target: T39, PCTK1 (Homo sapiens, UniProt Q00536)
T39 construct: purchased Ambit Biosciences (San Diego, Calif.)

PHKG1 = target: T40, PHKG1 (Homo sapiens, UniProt Q16816)
T40 construct: purchased Ambit Biosciences (San Diego, Calif.)
T40 sequence (Q16816 whole entry): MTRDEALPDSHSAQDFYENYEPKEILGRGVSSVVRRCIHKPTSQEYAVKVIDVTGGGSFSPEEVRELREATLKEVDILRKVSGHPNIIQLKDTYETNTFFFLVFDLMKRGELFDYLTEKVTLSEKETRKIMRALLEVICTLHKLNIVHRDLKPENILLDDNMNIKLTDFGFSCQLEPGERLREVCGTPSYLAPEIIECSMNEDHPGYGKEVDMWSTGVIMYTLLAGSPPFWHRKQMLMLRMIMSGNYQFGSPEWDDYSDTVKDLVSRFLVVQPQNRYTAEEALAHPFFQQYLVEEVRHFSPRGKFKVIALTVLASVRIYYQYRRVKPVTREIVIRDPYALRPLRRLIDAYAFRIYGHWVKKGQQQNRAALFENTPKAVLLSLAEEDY

T31 sequence (P49759 whole entry): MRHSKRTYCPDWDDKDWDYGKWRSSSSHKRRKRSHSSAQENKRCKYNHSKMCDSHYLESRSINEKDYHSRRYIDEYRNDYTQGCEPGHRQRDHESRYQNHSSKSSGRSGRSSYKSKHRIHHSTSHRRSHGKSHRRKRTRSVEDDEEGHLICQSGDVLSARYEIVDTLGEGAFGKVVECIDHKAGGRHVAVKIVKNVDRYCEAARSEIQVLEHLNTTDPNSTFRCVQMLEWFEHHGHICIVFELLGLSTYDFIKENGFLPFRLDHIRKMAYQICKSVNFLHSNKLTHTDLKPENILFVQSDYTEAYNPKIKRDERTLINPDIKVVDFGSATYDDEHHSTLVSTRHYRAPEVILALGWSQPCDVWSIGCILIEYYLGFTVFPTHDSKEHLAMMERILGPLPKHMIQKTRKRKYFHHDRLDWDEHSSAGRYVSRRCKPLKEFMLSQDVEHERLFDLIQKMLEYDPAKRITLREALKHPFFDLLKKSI
T34 sequence (Q9UQB9 whole entry): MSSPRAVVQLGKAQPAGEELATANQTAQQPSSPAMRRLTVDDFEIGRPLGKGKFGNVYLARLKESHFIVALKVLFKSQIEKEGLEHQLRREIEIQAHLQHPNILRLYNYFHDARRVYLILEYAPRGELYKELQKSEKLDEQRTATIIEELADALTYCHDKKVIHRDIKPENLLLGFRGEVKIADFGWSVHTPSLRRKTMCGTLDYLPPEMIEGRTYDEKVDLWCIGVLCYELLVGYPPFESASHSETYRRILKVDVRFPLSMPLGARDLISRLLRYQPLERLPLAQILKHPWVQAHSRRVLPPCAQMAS
T24 sequence (Q15303 26-1308): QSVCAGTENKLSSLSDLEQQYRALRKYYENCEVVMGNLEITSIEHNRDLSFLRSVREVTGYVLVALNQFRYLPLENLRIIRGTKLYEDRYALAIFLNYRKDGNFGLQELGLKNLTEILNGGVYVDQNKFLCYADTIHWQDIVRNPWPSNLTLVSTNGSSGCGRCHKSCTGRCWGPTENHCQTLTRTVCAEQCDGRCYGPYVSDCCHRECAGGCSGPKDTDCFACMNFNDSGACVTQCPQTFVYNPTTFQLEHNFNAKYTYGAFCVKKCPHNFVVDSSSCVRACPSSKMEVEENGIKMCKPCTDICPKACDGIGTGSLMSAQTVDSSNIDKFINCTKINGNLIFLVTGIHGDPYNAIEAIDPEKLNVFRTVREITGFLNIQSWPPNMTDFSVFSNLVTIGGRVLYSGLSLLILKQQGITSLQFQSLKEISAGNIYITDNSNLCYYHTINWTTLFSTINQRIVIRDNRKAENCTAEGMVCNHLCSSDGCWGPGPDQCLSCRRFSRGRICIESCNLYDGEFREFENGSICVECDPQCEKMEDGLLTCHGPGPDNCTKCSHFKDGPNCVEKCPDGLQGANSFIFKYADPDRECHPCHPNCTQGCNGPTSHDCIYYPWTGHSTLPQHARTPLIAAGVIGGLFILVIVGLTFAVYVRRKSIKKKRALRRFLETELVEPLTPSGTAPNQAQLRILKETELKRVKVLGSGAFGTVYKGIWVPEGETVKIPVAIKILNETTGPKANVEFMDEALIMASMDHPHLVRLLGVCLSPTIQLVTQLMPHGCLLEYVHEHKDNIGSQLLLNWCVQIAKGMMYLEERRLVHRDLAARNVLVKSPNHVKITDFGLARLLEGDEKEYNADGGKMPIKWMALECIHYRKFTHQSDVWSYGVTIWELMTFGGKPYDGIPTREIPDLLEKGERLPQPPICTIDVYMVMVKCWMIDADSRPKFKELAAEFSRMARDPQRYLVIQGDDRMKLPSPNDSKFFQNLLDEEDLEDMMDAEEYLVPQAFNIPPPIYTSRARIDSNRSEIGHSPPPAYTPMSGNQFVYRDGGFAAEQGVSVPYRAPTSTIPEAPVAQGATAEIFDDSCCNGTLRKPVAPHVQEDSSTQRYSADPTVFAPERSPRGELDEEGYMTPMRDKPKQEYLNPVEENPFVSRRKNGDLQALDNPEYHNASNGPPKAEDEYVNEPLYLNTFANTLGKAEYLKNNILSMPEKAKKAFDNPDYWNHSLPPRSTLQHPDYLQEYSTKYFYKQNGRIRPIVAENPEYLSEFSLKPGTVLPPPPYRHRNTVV
T7 sequence (Q13555 whole entry): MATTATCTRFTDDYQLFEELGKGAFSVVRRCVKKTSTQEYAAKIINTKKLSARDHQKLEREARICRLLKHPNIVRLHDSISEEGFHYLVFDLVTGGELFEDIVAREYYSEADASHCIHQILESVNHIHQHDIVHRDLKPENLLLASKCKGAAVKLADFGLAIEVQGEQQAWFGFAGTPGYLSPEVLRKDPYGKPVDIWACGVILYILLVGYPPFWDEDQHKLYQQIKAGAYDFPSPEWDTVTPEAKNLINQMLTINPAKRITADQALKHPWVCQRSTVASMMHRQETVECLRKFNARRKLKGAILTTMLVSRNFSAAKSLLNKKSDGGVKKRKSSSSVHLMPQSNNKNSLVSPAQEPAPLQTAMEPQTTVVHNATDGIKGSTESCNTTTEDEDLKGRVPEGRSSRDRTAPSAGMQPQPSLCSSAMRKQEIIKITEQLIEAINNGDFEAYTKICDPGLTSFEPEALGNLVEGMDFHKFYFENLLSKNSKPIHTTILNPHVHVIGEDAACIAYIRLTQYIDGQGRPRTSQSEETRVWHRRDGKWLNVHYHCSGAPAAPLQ
T30 sequence (P68400 whole entry): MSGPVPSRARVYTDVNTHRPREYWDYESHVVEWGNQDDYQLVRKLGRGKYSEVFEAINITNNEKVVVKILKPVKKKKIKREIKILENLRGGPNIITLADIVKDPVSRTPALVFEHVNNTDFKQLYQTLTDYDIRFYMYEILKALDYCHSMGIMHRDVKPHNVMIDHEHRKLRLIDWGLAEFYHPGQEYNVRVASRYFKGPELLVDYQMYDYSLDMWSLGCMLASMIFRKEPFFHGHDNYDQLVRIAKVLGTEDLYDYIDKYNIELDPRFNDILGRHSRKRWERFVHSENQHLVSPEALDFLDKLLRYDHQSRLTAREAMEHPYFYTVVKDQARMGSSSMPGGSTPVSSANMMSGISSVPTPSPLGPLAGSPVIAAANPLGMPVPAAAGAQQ
T15 sequence (O75716 whole entry): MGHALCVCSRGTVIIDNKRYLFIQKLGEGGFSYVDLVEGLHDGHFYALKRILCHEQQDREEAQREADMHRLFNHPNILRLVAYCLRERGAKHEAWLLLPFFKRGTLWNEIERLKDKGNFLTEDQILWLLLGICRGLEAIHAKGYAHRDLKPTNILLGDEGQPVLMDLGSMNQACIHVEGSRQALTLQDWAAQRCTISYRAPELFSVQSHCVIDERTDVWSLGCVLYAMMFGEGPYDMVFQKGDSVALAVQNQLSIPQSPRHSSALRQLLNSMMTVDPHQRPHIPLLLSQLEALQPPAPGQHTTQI
T25 sequence (Q9P1W9 whole entry): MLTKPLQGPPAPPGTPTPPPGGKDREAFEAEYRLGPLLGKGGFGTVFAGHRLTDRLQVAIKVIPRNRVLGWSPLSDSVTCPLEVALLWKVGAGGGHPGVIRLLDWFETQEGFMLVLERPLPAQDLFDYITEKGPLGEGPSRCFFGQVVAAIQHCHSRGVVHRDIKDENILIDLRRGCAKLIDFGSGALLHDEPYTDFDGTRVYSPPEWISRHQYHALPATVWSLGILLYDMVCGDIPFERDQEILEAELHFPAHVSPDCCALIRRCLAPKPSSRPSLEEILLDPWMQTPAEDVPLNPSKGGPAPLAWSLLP
T37 sequence (P15735 whole entry): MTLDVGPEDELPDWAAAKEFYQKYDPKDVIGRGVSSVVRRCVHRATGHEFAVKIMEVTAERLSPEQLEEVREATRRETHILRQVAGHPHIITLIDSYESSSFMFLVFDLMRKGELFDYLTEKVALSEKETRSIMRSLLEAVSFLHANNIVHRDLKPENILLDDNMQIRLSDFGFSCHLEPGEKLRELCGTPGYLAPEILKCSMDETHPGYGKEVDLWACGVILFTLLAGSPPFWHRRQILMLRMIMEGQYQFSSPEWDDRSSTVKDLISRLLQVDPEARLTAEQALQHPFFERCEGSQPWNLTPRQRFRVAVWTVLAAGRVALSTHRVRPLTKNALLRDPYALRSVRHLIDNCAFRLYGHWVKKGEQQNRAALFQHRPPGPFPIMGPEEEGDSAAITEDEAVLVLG
T13 sequence (Q15831 whole entry): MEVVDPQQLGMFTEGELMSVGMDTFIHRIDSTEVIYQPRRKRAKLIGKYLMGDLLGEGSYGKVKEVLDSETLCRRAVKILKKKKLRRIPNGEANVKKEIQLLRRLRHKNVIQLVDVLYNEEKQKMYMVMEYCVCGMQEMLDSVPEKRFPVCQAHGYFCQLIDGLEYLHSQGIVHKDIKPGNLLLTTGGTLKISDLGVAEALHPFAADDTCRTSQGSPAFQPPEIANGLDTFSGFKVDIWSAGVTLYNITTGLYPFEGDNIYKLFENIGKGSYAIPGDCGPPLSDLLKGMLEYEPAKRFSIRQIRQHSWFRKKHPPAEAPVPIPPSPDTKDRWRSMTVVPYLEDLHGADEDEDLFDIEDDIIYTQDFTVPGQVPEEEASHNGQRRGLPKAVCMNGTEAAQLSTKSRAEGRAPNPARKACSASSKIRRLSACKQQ

Compound	inhibition at 10 µM (LCK) [%]	inhibition at 10 µM (GAK) [%]	inhibition at 10 µM (RIPK2) [%]	inhibition at 10 µM (PAK7/PAK5) [%]	inhibition at 10 µM (CAMK1D) [%]	inhibition at 10 µM (IGF1R) [%]	inhibition at 10 µM (CAMK2G) [%]	inhibition at 10 µM (EPHA6) [%]	inhibition at 10 µM (INSR) [%]	inhibition at 10 µM (VEGFR2) [%]	inhibition at 10 µM (RAF1) [%]	inhibition at 10 µM (ERBB2) [%]	inhibition at 10 µM (STK11) [%]	inhibition at 10 µM (SLK) [%]	inhibition at 10 µM (STK16) [%]	inhibition at 10 µM (FYN) [%]	inhibition at 10 µM (HCK) [%]	inhibition at 10 µM (MAP4K5) [%]	inhibition at 10 µM (CAMKK2) [%]	inhibition at 10 µM (CLK3) [%]	also measured
NC(=O)c1ccc(-c2nc(-c3ccc4c(c3)OCCO4)c(-c3ccccn3)[nH]2)cc1 [D4476, 4-[4-(2,3-Dihydro-benzo[1,4]dioxin-6-yl)-5-pyridin-2-yl-1H-imidazol-2-yl]benzamide]	< 50	< 50	< 50	< 50	< 50	< 50	< 50	< 50	< 50	< 50	< 50	< 50	< 50	< 50	< 50	< 50	< 50	< 50	< 50	< 50	inhibition at 10 µM (LYN): < 50%; inhibition at 10 µM (PAK3): < 50%; inhibition at 10 µM (FGFR1): < 50%; inhibition at 10 µM (ERBB4): < 50%; inhibition at 10 µM (PIM2): < 50%; inhibition at 10 µM (NEK6): < 50%; inhibition at 10 µM (JNK1): < 50%; inhibition at 10 µM (FER): < 50%; inhibition at 10 µM (TNIK): < 50%; inhibition at 10 µM (CSNK2A1): < 50%; inhibition at 10 µM (CLK1): < 50%; inhibition at 10 µM (p38-gamma): < 50%; inhibition at 10 µM (PTK2B): < 50%; inhibition at 10 µM (AURKC): < 50%; inhibition at 10 µM (RPS6KA5): < 50%; inhibition at 10 µM (TIE2): < 50%; inhibition at 10 µM (PHKG2): < 50%; inhibition at 10 µM (PAK4): < 50%; inhibition at 10 µM (PCTK1): < 50%; inhibition at 10 µM (PHKG1): < 50%
NC(=O)c1ccc(-c2nc(-c3ccc4c(c3)OCO4)c(-c3ccccn3)[nH]2)cc1 [SB431542, 4-(4-benzo-[1,3]dioxol-5-yl-5-pyridin-2-yl-1H-imidazol-2-yl)benzamide]	< 50	< 50	< 50	< 50	< 50	< 50	< 50	< 50	< 50	< 50	< 50	< 50	< 50	< 50	< 50	< 50	< 50	< 50	< 50	< 50	inhibition at 10 µM (LYN): < 50%; inhibition at 10 µM (PAK3): < 50%; inhibition at 10 µM (FGFR1): < 50%; inhibition at 10 µM (ERBB4): < 50%; inhibition at 10 µM (PIM2): < 50%; inhibition at 10 µM (NEK6): < 50%; inhibition at 10 µM (JNK1): < 50%; inhibition at 10 µM (FER): < 50%; inhibition at 10 µM (TNIK): < 50%; inhibition at 10 µM (CSNK2A1): < 50%; inhibition at 10 µM (CLK1): < 50%; inhibition at 10 µM (p38-gamma): < 50%; inhibition at 10 µM (PTK2B): < 50%; inhibition at 10 µM (AURKC): < 50%; inhibition at 10 µM (RPS6KA5): < 50%; inhibition at 10 µM (TIE2): < 50%; inhibition at 10 µM (PHKG2): < 50%; inhibition at 10 µM (PAK4): < 50%; inhibition at 10 µM (PCTK1): < 50%; inhibition at 10 µM (PHKG1): < 50%

— patent publication US20080146617A1, “Methods of treating inflammatory diseases” (Roche Palo Alto LLC, priority 2006, published 2008)
